The experiment has as its target L-lactate dehydrogenase (Plasmodium falciparum) (UniProt Q27743). Put plainly: inhibitory activity against Plasmodium falciparum LDH (pLDH).

`Cc1cc2c(C)c(O)c(O)c(C(=O)O)c2cc1Cc1ccccc1` [7-Benzyl-2,3-dihydroxy-4,6-dimethyl-naphthalene-1-carboxylic acid]: the inhibitory constant (Ki) – broadly, the equilibrium dissociation constant of an inhibitor or competing ligand from its target – turned out to be 8 µM. In other words, the single-digit micromolar range.
The value for `Cc1ccc2c(C(=O)O)c(O)c(O)c(C)c2c1` [2,3-Dihydroxy-4,6-dimethyl-naphthalene-1-carboxylic acid] was 22 µM; that for `Cc1cc2c(C(C)C)c(O)c(O)c(C(=O)O)c2cc1Cc1ccccc1` [7-Benzyl-2,3-dihydroxy-4-isopropyl-6-methyl-naphthalene-1-carboxylic acid] was 0.7 µM.
The figure for `Cc1ccc2c(C(=O)O)c(O)c(O)c(C(C)C)c2c1` [2,3-Dihydroxy-4-isopropyl-6-methyl-naphthalene-1-carboxylic acid] is 2 µM; for `Cc1cc2c(C(=O)O)c(O)c(O)c(C(C)C)c2cc1C` [2,3-Dihydroxy-4-isopropyl-6,7-dimethyl-naphthalene-1-carboxylic acid] it is 1 µM.
`Cc1cc2c(C)c(O)c(O)c(C(=O)O)c2cc1C` [2,3-Dihydroxy-4,6,7-trimethyl-naphthalene-1-carboxylic acid] came in with a Ki of 13 µM.
The figure for `CCCc1c(O)c(O)c(C(=O)O)c2ccc(C)cc12` [2,3-Dihydroxy-6-methyl-4-propyl-naphthalene-1-carboxylic acid] is 6 µM; for `Cc1cc2c(C(C)C)c(O)c(O)c(C(=O)O)c2cc1Cc1ccc(C(F)(F)F)cc1` [2,3-Dihydroxy-4-isopropyl-6-methyl-7-(4-trifluoromethyl-benzyl)-naphthalene-1-carboxylic acid] it is 0.2 µM.

These data come from BindingDB's records for doi:10.1021/jm980334n (University of New Mexico School of Medicine, 1998).
